{
  "source": "paper PMC2362153",
  "about": "(British Journal of Cancer, 1999)",
  "key": {"[1]": {"experiment": "Plasma pharmacokinetics of doxorubicin and metabolites after i.v. bolus in wild-type and mdr1a(-/-) mice (HPLC)", "details": "for half-life / concentration at 1 h / concentration at 4 h / concentration at 24 h / AUC(0-t) / clearance / Vd: female, FVB, mouse, iv; for half-life: in vivo, t1/2(), elimination half-life; for half-life / AUC(0-t) / clearance / Vd: 5 mg/kg; for concentration at 1 h / concentration at 4 h / concentration at 24 h / AUC(0-t) / clearance / Vd: plasma; for concentration at 1 h / concentration at 4 h / concentration at 24 h: 5 mg kg-1, Plasma level; for concentration at 1 h: 1 h after i.v. 5 mg kg-1 doxorubicin; for concentration at 4 h: 4 h after i.v. 5 mg kg-1 doxorubicin; for concentration at 24 h: 24 h after i.v. 5 mg kg-1 doxorubicin; for AUC(0-t): AUC(0-64), area under the plasma concentration-time curve up to 64 h; for clearance: Cl; for Vd: volume of distribution", "source_text": "(§1) Blank human plasma was obtained from healthy donors. […] All biological specimens were stored at -20C until analysis. […] However, […]"}, "[2]": {"experiment": "Tissue distribution of doxorubicin and metabolites in wild-type and mdr1a(-/-) mice (HPLC)", "details": "24 h after drug administration", "source_text": "as §1"}, "[3]": {"details": "mouse, in vivo", "source_text": "as §1"}, "[4]": {"test_system": "mdr1a transfected cells", "set-up": "method as in Tang-Wai et al, 1995", "details": "ref Tang-Wai et al, 1995; cited from earlier work"}, "[5]": {"details": "cited from earlier work"}, "[6]": {"experiment": "Urinary and faecal excretion of doxorubicin and metabolites within 96 h (metabolic cages)", "details": "for Excretion in faeces / Excretion in urine: within 96 h after i.v. 5 mg kg-1 doxorubicin"}, "[7]": {"details": "over 48 h, ref Van Asperen et al, 1996, cited from earlier work"}, "[8]": {"details": "mdr1a(-/-) mice, i.v. bolus 5 mg kg-1"}, "[9]": {"details": "wild-type mice, i.v. bolus 5 mg kg-1"}},
  "note": "Read-outs that look alike come from different tables or passages of the source.",
  "data": [
    {"compound": "COc1cccc2c1C(=O)c1c(O)c3c(c(O)c1C2=O)C[C@@](O)(C(=O)CO)C[C@@H]3O[C@H]1C[C@H](N)[C@H](O)[C@H](C)O1", "note": "[doxorubicin]", "values": [
      {"measurement": "half-life", "setting": "[1]; [8]", "result": 24.8, "unit": "h"},
      {"measurement": "half-life", "setting": "[1]; [9]", "result": 15.7, "unit": "h"},
      {"measurement": "concentration at 1 h", "setting": "[1]; mdr1a(-/-) mice", "result": 110, "unit": "nM"},
      {"measurement": "concentration at 1 h", "setting": "[1]; wild-type mice", "result": 130, "unit": "nM"},
      {"measurement": "concentration at 4 h", "setting": "[1]; mdr1a(-/-) mice", "result": 66.2, "unit": "nM"},
      {"measurement": "concentration at 4 h", "setting": "[1]; wild-type mice", "result": 70.9, "unit": "nM"},
      {"measurement": "concentration at 24 h", "setting": "[1]; mdr1a(-/-) mice", "result": 28.2, "unit": "nM"},
      {"measurement": "concentration at 24 h", "setting": "[1]; wild-type mice", "result": 16.3, "unit": "nM"},
      {"measurement": "AUC(0-t)", "setting": "[1]; [8]", "result": 2.27, "unit": "µM·h"},
      {"measurement": "AUC(0-t)", "setting": "[1]; [9]", "result": 1.82, "unit": "µM·h"},
      {"measurement": "clearance", "setting": "[1]; [8]", "result": 60, "unit": "mL/min/kg"},
      {"measurement": "clearance", "setting": "[1]; [9]", "result": 75, "unit": "mL/min/kg"},
      {"measurement": "Vd", "setting": "[1]; [8]", "result": 128, "unit": "L/kg"},
      {"measurement": "Vd", "setting": "[1]; [9]", "result": 101, "unit": "L/kg"},
      {"measurement": "AUC, mdr1a(-/-) in comparison with wild-type mice", "setting": "[1]; i.v. bolus 5 mg kg-1", "result": 1.2, "unit": "fold"},
      {"measurement": "Vd, mdr1a(-/-) in comparison with wild-type mice", "setting": "[1]; i.v. bolus 5 mg kg-1", "result": 1.3, "unit": "fold"},
      {"measurement": "terminal half-life, mdr1a(-/-) in comparison with wild-type mice", "setting": "[1]; i.v. bolus 5 mg kg-1", "result": 1.6, "unit": "fold"},
      {"measurement": "absolute concentration in hearts of mdr1a(-/-) mice compared with wild-type", "setting": "[2]", "result": "more than twofold higher"},
      {"measurement": "tolerability of dose level", "setting": "[3]", "result": "well tolerated"},
      {"measurement": "resistance of mdr1a transfected cells in comparison with non-P-glycoprotein-expressing parental cells", "setting": "[4]", "result": 35, "unit": "fold"},
      {"measurement": "doxorubicin concentration in heart on co-administration of reversal agent", "setting": "[5]; ref Bellamy et al, 1995", "result": "up to twofold higher"},
      {"measurement": "dose excreted unchanged in faeces", "setting": "[6]; within 96 h after administration, wild-type mice", "result": 5, "unit": "%"},
      {"measurement": "Excretion in faeces", "setting": "[6]; mdr1a(-/-) mice", "result": "4.1 percentage of the administered dose"},
      {"measurement": "Excretion in urine", "setting": "[6]; mdr1a(-/-) mice", "result": "15.4 percentage of the administered dose"},
      {"measurement": "Excretion in faeces", "setting": "[6]; wild-type mice", "result": "5.2 percentage of the administered dose"},
      {"measurement": "Excretion in urine", "setting": "[6]; wild-type mice", "result": "10.9 percentage of the administered dose"}
    ]},
    {"compound": "cyclosporin A", "values": [
      {"measurement": "mortality on co-administration with doxorubicin", "setting": "[5]; non-tumour-bearing mice, ref Colombo et al, 1994, Bellamy et al, 1995, Gonzalez et al", "result": "high mortality"}
    ]},
    {"compound": "CC[C@]1(O)C[C@@H]2CN(CCc3c([nH]c4ccccc34)[C@@](C(=O)OC)(c3cc4c(cc3OC)N(C)[C@H]3[C@@](O)(C(=O)OC)[C@H](OC(C)=O)[C@]5(CC)C=CCN6CC[C@]43[C@@H]65)C2)C1", "note": "[vinblastine]", "values": [
      {"measurement": "resistance of mdr1a transfected cells in comparison with non-P-glycoprotein-expressing parental cells", "setting": "[4]", "result": 53, "unit": "fold"},
      {"measurement": "i.v. administered dose excreted unchanged in the faeces", "setting": "[7]; mdr1a(-/-) mice", "result": 10, "unit": "%"},
      {"measurement": "i.v. administered dose excreted unchanged in the faeces", "setting": "[7]; wild-type mice", "result": 24, "unit": "%"}
    ]}
  ]
}
